This assay concerns the target T1, Aβ42 (amyloid-beta) (Homo sapiens, UniProt P05067).
T1 construct: gene APP; Aβ42
Briefly: ThT fibril aggregation assay, […] Aβ[…] h at […] °C. The assay is classed as biochemical.

T1 sequence (P05067 672-713): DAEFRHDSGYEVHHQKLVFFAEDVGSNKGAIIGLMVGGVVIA

Turning to `O=C(/C=C/c1ccc(O)c(O)c1)O[C@H](Cc1ccc(O)c(O)c1)C(=O)O` [Rosmarinic acid], the half-maximal effective concentration (EC50) was 15 µM.

As a reminder, the EC50 is the concentration at which the effect is half-maximal. The low end stands for greater potency, the high end for weaker potency.

(Values after publication PMC12250624, “Anti-Amyloid Aggregation Effects of Gobaishi (Galla chinensis) and Its Active Constituents” (Molecules, 2025).)
